Entries after “also recorded” stand apart in the source; their conditions may differ.
How the values were obtained:
E. coli = experiment: Antimicrobial inactivation under consumer LED lamp; type: cell-based, Escherichia coli; settings: dyed filter paper, 1 h illumination from LED lamp
Procedure: (§1) The antimicrobial efficiency of the dye was confirmed by CFU method using microbes E. coli MG1655 (E. coli Genetic Resources at Yale) and A. baylyi ADP1 (ATCC 33305). […] The microplate was illuminated in the solar simulator for 1 hour. UV-IR radiations were cut off using a combination of KG3 band pass filter (315-750 nm transmittance) and ? c-17 yellow filter (transmittance >485 nm). Similarly, light control samples were prepared by depositing microbial medium over dyed and un-dyed samples by covering microplate with aluminum foil for 1 h at room temperature. After 1 h of illumination or incubation, the microbes were extracted with LB medium (10 g/l tryptone, 5 g/l yeast extract, 5 g/l NaCl) (975 μl) and serial dilutions were made from each extract. The dilutions were then plated on LA agar plates and incubated at 30° C. overnight. The number of colonies grown on the agar plate was counted and CFUs per milliliter were calculated from it.
(§2) The spectrum of light emitted from the lamp prior to the experiments was measured. […] In addition, the power density of the lamp was also measured at different distances. […] The absorptance of phthalocyanine Pc4 and porphyrin ZnPf papers were calculated from reflectance and transmittance measurement of dyed papers using integrating sphere (IS) detector. The absorptance profiles were very similar to the absorbance measurement in solution. […]

[1] = Leeching test of dyed paper in PBS buffer; type: physicochemical
Procedure: Stability of the dye Pc4 against was tested with PBS buffer pH 7.2. The absorbance and emission of PBS buffer incubated with dye papers were measured for checking the leeching (FIGS. 9a and b). […] Absorbance and emission of PBS buffer from each vial was measured after 1 h to check the leeching of dyes from papers.

A. baylyi = experiment: Antimicrobial inactivation under consumer LED lamp; type: cell-based, Acinetobacter baylyi; settings: dyed filter paper, 1 h illumination from LED lamp
Procedure: as §1, with “The microplate was illuminated in the solar simulator for 1 hour.” left out
as §2

[2] = test system: Escherichia coli (XL1-Blue) carrying plasmid pBAV1C-T5-lux; experiment: Screening test with bioluminescent E. coli on dyed filter paper discs; type: cell-based; settings: dyed filter paper discs on LA agar, 1 hour illumination, 18 mWcm−2
Procedure: (§3) The efficiency of dyes (Pc1, Pc2, Pc3, Pc4) was screened by conducting antimicrobial test with bioluminescent bacterial strains Escherichia coli (XL1-Blue, Stratagene, USA) and Acinetobacter baylyi ADP1 (DSM 24193) carrying plasmid pBAV1C-T5-lux (the plasmid is chloramphenicol resistance derivate of the pBAV1K-T5-lux plasmid (Addgene #55800). The filter papers (12.25 cm^2) were soaked in respective dye solution (0.9 mg dye in 200 μl solvent) and allowed to dry on it. After drying, three circular discs (0.5 cm diameter) were cut from each filter paper and pasted on the LA agar (15 g/l agar, 10 g/l tryptone, 5 g/l yeast extract, 5 g/l NaCl) gel plate in such a way that each row corresponds to each dye. A circular dark screen of 0.3 cm height with a square hole in the center was placed over the agar plate. The square hole was cut in such a way that, one column which includes all the four dyes will be under the dark area of the screen while the two remaining columns will be inside the square hole. Two filters [KG3 band pass filter (315-750 nm transmittance) and ? […] Luminescence arising from the setup was recorded (Xenogen IVIS 100) before the microbial deposition on the filter paper discs. […] Luminescence of the agar plate before and after illumination of 1 hour was measured and the efficient dye which produces less luminescence was screened out from the set.

A. baylyi ADP1 = experiment: Colony forming unit (CFU) method, solar simulator; type: cell-based, Acinetobacter baylyi; settings: for Colony counts after incubation / CFU/ml / Colony counts after incubation (Average) / Colony counts after incubation (Duplicate): Acinetobacter baylyi
Procedure: as §1

E. coli MG1655 = experiment: Colony forming unit (CFU) method, solar simulator; type: cell-based, Escherichia coli; settings: for Colony counts after incubation / CFU/ml / Colony counts after incubation (Average) / Colony counts after incubation (Duplicate): E. Coli
Procedure: as §1

[3] = test system: Acinetobacter baylyi ADP1 carrying plasmid pBAV1C-T5-lux; experiment: Screening test with bioluminescent Acinetobacter baylyi on dyed filter paper discs; type: cell-based; settings: dyed filter paper discs on LA agar, 1 hour illumination, 18 mWcm−2
Procedure: as §3

[4] = Pc4 filter paper-Dark 1 h, dilution factor 2.50E−03, 0.1 ml plated
[5] = Pc4 filter paper-Dark 1 h, dilution factor 2.50E−04, 0.1 ml plated
[6] = Pc4 filter paper-Dark 1 h, dilution factor 2.50E−05, 0.1 ml plated
[7] = Pc4 filter paper-Dark 1 h, dilution factor 2.50E−06, 0.1 ml plated
[8] = Pc4 filter paper-Dark 1 h, dilution factor 2.50E−07, 0.1 ml plated
[9] = illuminated Pc4 filter paper 1 h, dilution factor 2.50E−03, 0.1 ml plated
[10] = illuminated Pc4 filter paper 1 h, dilution factor 2.50E−04, 0.1 ml plated
[11] = illuminated Pc4 filter paper 1 h, dilution factor 2.50E−05, 0.1 ml plated
[12] = illuminated Pc4 filter paper 1 h, dilution factor 2.50E−06, 0.1 ml plated
[13] = illuminated Pc4 filter paper 1 h, dilution factor 2.50E−07, 0.1 ml plated
[14] = illuminated Pc4 filter paper 1 h, dilution factor 2.50E−02, 0.1 ml plated

C[n+]1ccc(-c2c3nc(c(-c4cc[n+](C)cc4)c4ccc([nH]4)c(-c4cc[n+](C)cc4)c4nc(c(-c5cc[n+](C)cc5)c5ccc2[nH]5)C=C4)C=C3)cc1.I.I.I.I.[Zn+2] [ZnPf, Zn(II)tetrakis[methylpyridinium iodide]porphyrin, reference compound]
inactivation of microorganisms (E. coli): complete inactivation
absorbance of PBS extract of dyed paper (leeching) ([1]; 28 mg dyed paper in 4 ml PBS pH 7.2, 1 hour, room temperature): strong absorption peak at 422 nm
emission of PBS extract of dyed paper (leeching) ([1]; PBS pH 7.2, excited at 422 nm, after 1 hour of incubation): intense emission peak
inactivation of microorganisms (A. baylyi): complete inactivation

{4,4′,4″,4″-(29H,31H-phthalocyanine-1(4),8(11),15(18),22(25)-tetrayl-κ 4N29,N30,N31,N32)tetrakis [1-methylpyridiniumato(2-)]}zinc(4+) tetraiodide [Pc4]
efficiency of dye (luminescence after illumination) [2]: most efficient
microbial growth on plates (A. baylyi ADP1; A. baylyi, illuminated Pc4 filter paper, 1 hour solar simulator): No microbial growth
Colony counts after incubation (A. baylyi ADP1; [4]): Too many to count
Colony counts after incubation (A. baylyi ADP1; [5]): Too many to count
CFU/ml (A. baylyi ADP1; [6]): 7.06E+07 CFU/ml
Colony counts after incubation (A. baylyi ADP1; [6]): 175
Colony counts after incubation (Average) (A. baylyi ADP1; [6]): 176.5
Colony counts after incubation (Duplicate) (A. baylyi ADP1; [6]): 178
CFU/ml (A. baylyi ADP1; [7]): 5.20E+07 CFU/ml
Colony counts after incubation (A. baylyi ADP1; [7]): 22
Colony counts after incubation (Average) (A. baylyi ADP1; [7]): 13
Colony counts after incubation (Duplicate) (A. baylyi ADP1; [7]): 4
CFU/ml (A. baylyi ADP1; [8]): 1.40E+08 CFU/ml
Colony counts after incubation (A. baylyi ADP1; [8]): 6
Colony counts after incubation (Average) (A. baylyi ADP1; [8]): 3.5
Colony counts after incubation (Duplicate) (A. baylyi ADP1; [8]): 1
CFU/ml (A. baylyi ADP1; [9]): 0.00E+00 CFU/ml
Colony counts after incubation (A. baylyi ADP1; [9]): 0
Colony counts after incubation (Average) (A. baylyi ADP1; [9]): 0
Colony counts after incubation (Duplicate) (A. baylyi ADP1; [9]): 0
CFU/ml (A. baylyi ADP1; [10]): 0.00E+00 CFU/ml
Colony counts after incubation (A. baylyi ADP1; [10]): 0
Colony counts after incubation (Average) (A. baylyi ADP1; [10]): 0
Colony counts after incubation (Duplicate) (A. baylyi ADP1; [10]): 0
CFU/ml (A. baylyi ADP1; [11]): 0.00E+00 CFU/ml
Colony counts after incubation (A. baylyi ADP1; [11]): 0
Colony counts after incubation (Average) (A. baylyi ADP1; [11]): 0
Colony counts after incubation (Duplicate) (A. baylyi ADP1; [11]): 0
CFU/ml (A. baylyi ADP1; [12]): 0.00E+00 CFU/ml
Colony counts after incubation (A. baylyi ADP1; [12]): 0
Colony counts after incubation (Average) (A. baylyi ADP1; [12]): 0
Colony counts after incubation (Duplicate) (A. baylyi ADP1; [12]): 0
CFU/ml (A. baylyi ADP1; [13]): 0.00E+00 CFU/ml
Colony counts after incubation (A. baylyi ADP1; [13]): 0
Colony counts after incubation (Average) (A. baylyi ADP1; [13]): 0
Colony counts after incubation (Duplicate) (A. baylyi ADP1; [13]): 0
Colony counts after incubation (E. coli MG1655; Pc4 filter paper-Dark 1 h, dilution factor 2.50E−02, 0.1 ml plated): Too many to count
Colony counts after incubation (E. coli MG1655; [4]): Too many to count
Colony counts after incubation (E. coli MG1655; [5]): Too many to count
Colony counts after incubation (E. coli MG1655; [6]): Too many to count
CFU/ml (E. coli MG1655; [7]): 1.51E+09 CFU/ml
Colony counts after incubation (E. coli MG1655; [7]): 327
Colony counts after incubation (Average) (E. coli MG1655; [7]): 378
Colony counts after incubation (Duplicate) (E. coli MG1655; [7]): 429
CFU/ml (E. coli MG1655; [14]): 0.00E+00 CFU/ml
Colony counts after incubation (E. coli MG1655; [14]): 0
Colony counts after incubation (Average) (E. coli MG1655; [14]): 0
Colony counts after incubation (Duplicate) (E. coli MG1655; [14]): 0
CFU/ml (E. coli MG1655; [9]): 0.00E+00 CFU/ml
Colony counts after incubation (E. coli MG1655; [9]): 0
Colony counts after incubation (Average) (E. coli MG1655; [9]): 0
Colony counts after incubation (Duplicate) (E. coli MG1655; [9]): 0
CFU/ml (E. coli MG1655; [10]): 0.00E+00 CFU/ml
Colony counts after incubation (E. coli MG1655; [10]): 0
Colony counts after incubation (Average) (E. coli MG1655; [10]): 0
Colony counts after incubation (Duplicate) (E. coli MG1655; [10]): 0
CFU/ml (E. coli MG1655; [11]): 0.00E+00 CFU/ml
Colony counts after incubation (E. coli MG1655; [11]): 0
Colony counts after incubation (Average) (E. coli MG1655; [11]): 0
Colony counts after incubation (Duplicate) (E. coli MG1655; [11]): 0
CFU/ml (E. coli MG1655; [12]): 0.00E+00 CFU/ml
Colony counts after incubation (E. coli MG1655; [12]): 0
Colony counts after incubation (Average) (E. coli MG1655; [12]): 0
Colony counts after incubation (Duplicate) (E. coli MG1655; [12]): 0
microbial growth on plates (E. coli MG1655; E. coli, illuminated Pc4 filter paper, 1 hour solar simulator): No microbial growth
inactivation of microorganisms (E. coli): complete inactivation
efficiency of dye (luminescence after illumination) [3]: most efficient
absorbance of PBS extract of dyed paper (leeching) ([1]; PBS pH 7.2, 20 h of incubation at room temperature): did not show any peak corresponding to the dye
emission of PBS extract of dyed paper (leeching) ([1]; PBS pH 7.2, excitation at 694 nm): very faint emission peak of negligible intensity
stability against leeching from paper ([1]; dye impregnated on filter paper, PBS buffer pH 7.2): exceptionally high stability against leeching; also recorded: does not release back to solution
inactivation of microorganisms (A. baylyi): complete inactivation

From patent US10875871B2, “Photosensitizer” (Tampereen Korkeakoulusäätiö sr, priority 2016, dated 2020)
